Several values for one entry are separate records, joined by “and”; a condition that tells them apart may be missing. Equal entries are not always repeated. Toxic doses and inconclusive results are not listed. How the source made its calls: active means survival T/C of 150% or more; inactive means T/C below 125% in these data.
System: P388 leukemia ip, CD2F1 mice, survival T/C
Test: NCI In Vivo Anticancer Drug Screen. Data for tumor model P388 Leukemia (intraperitoneal) in CD2F1 (CDF1) mice
Conditions: endpoint: median survival time, higher = longer survival
Summary of the method: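 Mice carrying the transplanted tumor received test compound or vehicle. Survival was recorded in each group, and the value is the treated-group measurement divided by that of the vehicle-treated control group.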

[1] = dose: 12.5 mg/kg/injection, schedule: Q01DX005 (ip), vehicle: saline with Tween-80
[2] = dose: 25.0 mg/kg/injection, schedule: Q01DX005 (ip), vehicle: saline with Tween-80
[3] = dose: 100.0 mg/kg/injection, schedule: Q01DX005 (ip), vehicle: saline with Tween-80
[4] = dose: 25.0 mg/kg/injection, schedule: Q01DX005 (ip), vehicle: saline
[5] = dose: 50.0 mg/kg/injection, schedule: Q01DX005 (ip), vehicle: saline
[6] = dose: 100.0 mg/kg/injection, schedule: Q01DX005 (ip), vehicle: saline
[7] = dose: 50.0 mg/kg/injection, schedule: Q01DX005 (ip), vehicle: saline with Tween-80
[8] = dose: 200.0 mg/kg/injection, schedule: Q01DX005 (ip), vehicle: saline
[9] = dose: 100.0 mg/kg/injection, schedule: Q01DX009 (ip), vehicle: saline with Tween-80

Measured: T/C

COc1ccc2c3c([nH]c2c1[N+](=O)[O-])C(C)N(S(=O)(=O)c1ccccc1)CC3 (stereo unspecified)
inactive: dose: 8.5 mg/kg/injection, schedule: Q01DX005 (ip), vehicle: Klucel (hydroxypropylcellulose) (HPC) 95 % of control | dose: 17.0 mg/kg/injection, schedule: Q01DX005 (ip), vehicle: Klucel (hydroxypropylcellulose) (HPC) 97 % of control | dose: 34.0 mg/kg/injection, schedule: Q01DX005 (ip), vehicle: Klucel (hydroxypropylcellulose) (HPC) 104 % of control | dose: 68.0 mg/kg/injection, schedule: Q01DX005 (ip), vehicle: Klucel (hydroxypropylcellulose) (HPC) 95 % of control | dose: 136.0 mg/kg/injection, schedule: Q01DX005 (ip), vehicle: Klucel (hydroxypropylcellulose) (HPC) 89 % of control

CC1(C)CC(=O)C=C(Nc2ccc(O)cc2)C1
inactive: dose: 6.25 mg/kg/injection, schedule: Q01DX005 (ip), vehicle: saline with Tween-80 100 % of control | [1] 100 % of control | [2] 96 % of control | [3] 86 % of control

CC(C)C(NC(=O)CCl)C(=O)O (stereo unspecified)
inactive: dose: 100.0 mg/kg/injection, schedule: Q01DX009 (ip), vehicle: Klucel (hydroxypropylcellulose) (HPC) 98 % of control | dose: 200.0 mg/kg/injection, schedule: Q01DX009 (ip), vehicle: Klucel (hydroxypropylcellulose) (HPC) 109 % of control

O=S(=O)(C#Cc1ccccc1)C(F)(F)C(F)(F)C(F)(F)C(F)(F)F
inactive: dose: 100.0 mg/kg/injection, schedule: Q01DX001 (ip), vehicle: saline 116 % of control | dose: 200.0 mg/kg/injection, schedule: Q01DX001 (ip), vehicle: saline 115 % of control | dose: 400.0 mg/kg/injection, schedule: Q01DX001 (ip), vehicle: saline 102 % of control

CC(=NC(C)(C)C)N1CCCC1
inactive: dose: 12.5 mg/kg/injection, schedule: Q01DX005 (ip), vehicle: saline 102 % of control | [4] 102 % of control | [5] 101 % of control | [6] 95 % of control

Cc1cc(=O)n(-c2ccc([N+](=O)[O-])cc2Cl)c(C)c1C(=O)O
inactive: [7] 103 % of control | [3] 96 % of control | dose: 200.0 mg/kg/injection, schedule: Q01DX005 (ip), vehicle: saline with Tween-80 106 % of control

COc1cc2c(cc1O)CCN[C@H]2C
inactive: [5] 100 % of control | [6] 100 % of control | [8] 108 % of control

OC1(O)CCCCN1Cc1ccccc1
inactive: [4] 103 % of control | [5] 101 % of control | [6] 100 % of control | [8] 107 % of control

CN1C(C)(C)CC(O)(C#N)CC1(C)C
inactive: [5] 100 % of control | [6] 98 % of control | [8] 103 % of control

COc1ncnc2nc(Cl)[nH]c12
inactive: dose: 50.0 mg/kg/injection, schedule: Q01DX005 (ip), vehicle: Klucel (hydroxypropylcellulose) (HPC) 100 % of control | dose: 100.0 mg/kg/injection, schedule: Q01DX005 (ip), vehicle: Klucel (hydroxypropylcellulose) (HPC) 102 % of control

CC(=O)Nc1ccc(N)cc1C
inactive: dose: 100.0 mg/kg/injection, schedule: Q04DX002 (ip), vehicle: saline 96 % of control | dose: 200.0 mg/kg/injection, schedule: Q04DX002 (ip), vehicle: saline 97 % of control | dose: 400.0 mg/kg/injection, schedule: Q04DX002 (ip), vehicle: saline 97 % of control

CC(=O)OCC1OC(n2nc(-c3ccccc3)c(=O)n(-c3ccccc3)c2=O)C(OC(C)=O)C(OC(C)=O)C1OC(C)=O (stereo unspecified)
inactive: dose: 100.0 mg/kg/injection, schedule: Q04DX003 (ip), vehicle: saline with Tween-80 110 % of control | dose: 200.0 mg/kg/injection, schedule: Q04DX003 (ip), vehicle: saline with Tween-80 111 % of control

CC(C)(C)c1cc(C(C)(C)c2ccccc2)cc(Cc2cc(C(C)(C)c3ccccc3)cc(C(C)(C)C)c2O)c1O
inactive: dose: 50.0 mg/kg/injection, schedule: Q01DX009 (ip), vehicle: saline with Tween-80 92 % of control | [9] 94 % of control | dose: 200.0 mg/kg/injection, schedule: Q01DX009 (ip), vehicle: saline with Tween-80 93 % of control | dose: 400.0 mg/kg/injection, schedule: Q01DX009 (ip), vehicle: saline with Tween-80 89 % of control

O=C(CCl)NN=C1C2CC3CC(C2)CC1C3
inactive: [9] 113 % of control

CC1CC(OC(=O)CSC#N)CC(C)(C)C1 (stereo unspecified)
inactive: [1] 104 % of control | [2] 101 % of control | [7] 101 % of control and 108 % of control
